{"source": "patent US20100285540A1", "about": "“Process for the preparation of (R)-Beta-Arylalanines by coupled Racemase/Aminomutase catalysis” (Board of Trustees of Michigan State University, priority 2009, published 2010)", "key": {"[1]": {"system": "amino acid racemase and PAM", "assay": "Coupled enzyme reaction (racemase + PAM, DKR conditions)", "type": "biochemical", "settings": "0.4 mM racemic α-arylalanine, 200 μg/mL racemase, 100 μg/mL PAM, 20 h", "procedure": "Coupled Enzyme Reaction. The coupled enzyme reaction mixture incubated at 31° C. contained partially purified amino acid racemase (200 μg) and PAM (100 μg) in 1 mL of 50 mM phosphate buffer (pH 8.0) containing 5% (v/v) glycerol. Each of the aryl α-amino acids (0.4 mM) were individually added to a separate assay tube containing the coupled enzyme mixture. After 20 h, the reactions were terminated by basification to pH 10-12 (with 0.5 N NaOH solution) and the amino acids were derivatized for quantification by chiral GC/EI-MS analysis as described previously."}, "[2]": {"target": "T1, phenylalanine aminomutase (PAM) (Taxus canadensis, UniProt Q6GZ04)", "T1 sequence (Q6GZ04 1-698)": "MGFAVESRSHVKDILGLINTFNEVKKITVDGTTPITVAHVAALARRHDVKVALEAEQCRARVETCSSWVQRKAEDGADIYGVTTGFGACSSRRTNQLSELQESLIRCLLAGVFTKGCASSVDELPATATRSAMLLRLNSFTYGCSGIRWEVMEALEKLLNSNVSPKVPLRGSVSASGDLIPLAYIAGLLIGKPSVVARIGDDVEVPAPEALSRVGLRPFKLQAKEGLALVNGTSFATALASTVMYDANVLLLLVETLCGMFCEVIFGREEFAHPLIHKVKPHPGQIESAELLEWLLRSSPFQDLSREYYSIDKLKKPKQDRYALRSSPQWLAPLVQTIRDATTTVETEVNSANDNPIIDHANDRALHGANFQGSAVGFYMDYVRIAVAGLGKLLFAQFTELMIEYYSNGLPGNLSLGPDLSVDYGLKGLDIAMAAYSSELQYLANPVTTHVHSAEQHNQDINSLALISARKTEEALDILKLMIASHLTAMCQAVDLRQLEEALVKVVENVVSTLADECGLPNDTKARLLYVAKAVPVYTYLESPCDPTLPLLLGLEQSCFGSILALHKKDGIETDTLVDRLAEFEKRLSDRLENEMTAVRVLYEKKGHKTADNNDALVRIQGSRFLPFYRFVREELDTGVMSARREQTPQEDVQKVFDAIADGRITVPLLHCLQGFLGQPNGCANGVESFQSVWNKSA", "assay": "Equilibration of α- and β-arylalanines by PAM", "type": "biochemical", "design": "His6 (N); made in house; host or cells: E. coli BL21(DE3)", "settings": "100 μg PAM, 31° C.; for β-product to α-substrate ratio: after 20 h, 0.4 mM substrate", "procedure": "Assessing the Equilibration Rate of α- and β-Arylalanines by PAM. […] An aliquot was withdrawn from each reaction at five time points (0, 3, 6, 9 and 20 h). The ratio of (R)-β-arylalanine to (S)-α-arylalanine in each aliquot was calculated by GC/EI-MS fragmentation analysis and the abundances of the base peak fragment ions of the amino acid derivatives were compared as described earlier. The relative amount of each α-arylalanine and β-arylalanine at equilibrium was determined by linear regression analysis of the area of the base peak ion of the derivatized α- and β-arylalanines generated in the EI-MS. The peak area was converted to concentration of product (or substrate) by solving the corresponding linear equation, derived by plotting the area of the base peak ion (produced by the corresponding authentic standard in the mass spectrometer) against concentration ranging from 0 to 1.5 mM."}, "[3]": {"system": "previously reported racemase", "settings": "naturally occurring aromatic amino acids; cited from earlier work"}, "[4]": {"target": "T1, phenylalanine aminomutase (PAM)", "assay": "Effect of (R)-α-phenylalanine on PAM activity (kinetic constants)", "quoted_text": "Evaluation of the Effect of (R)-α-Phenylalanine on PAM Activity. Phenylalanine aminomutase (100 μg/mL) was added to 50 mM phosphate buffer (pH 8.0) containing 5% (v/v) glycerol at 31° C. containing either (S)-α-phenylalanine or (R)-β-phenylalanine at a range of concentrations (0.05, 0.10, 0.20, 0.40, 0.75, 1.5, and 3 mM). The reactions were incubated at 31° C. for 90 min under steady state conditions. Identical series of assays were run in parallel for the (S)-α- or (R)-β-phenylalanine as substrates, except 0.2 mM and 0.75 mM of (R)-α-phenylalanine were added separately to each series. Double reciprocal plots of velocity (vo) and concentration were constructed for the forward and reverse PAM reaction data sets. The equation of the best-fit line (R^2=0.98) was determined (Microsoft Excel 2003, Microsoft Corporation, Redmond, Wash.) to calculate the apparent KM and Ki for the appropriate reaction.^17"}, "[5]": {"target": "T2, amino acid racemase from Pseudomonas putida (KT2440) (Pseudomonas putida, UniProt Q88GJ9)", "T2 construct": "His6 (N); made in house; host or cells: E. coli BL21(DE3)", "T2 sequence (Q88GJ9 25-409)": "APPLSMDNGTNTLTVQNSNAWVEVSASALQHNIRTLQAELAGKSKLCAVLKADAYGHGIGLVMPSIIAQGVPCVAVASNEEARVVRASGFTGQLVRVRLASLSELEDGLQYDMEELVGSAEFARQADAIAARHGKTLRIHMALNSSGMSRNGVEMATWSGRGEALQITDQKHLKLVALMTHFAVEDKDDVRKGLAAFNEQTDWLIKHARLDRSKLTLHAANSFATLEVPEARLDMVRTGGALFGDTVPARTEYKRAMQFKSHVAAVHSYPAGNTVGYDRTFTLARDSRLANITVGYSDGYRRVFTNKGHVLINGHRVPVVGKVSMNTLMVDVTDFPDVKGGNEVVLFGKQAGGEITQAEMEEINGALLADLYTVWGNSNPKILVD", "assay": "Racemization of α-arylalanines by amino acid racemase", "type": "biochemical", "procedure": "Assessing the Racemization Rate of α-Arylalanines by the Amino Acid Racemase. The partially purified (>90%) amino acid racemase (200 μg/mL) was added to 2.5 mL of 50 mM phosphate buffer (pH 8.0) containing 5% (v/v) glycerol and one different (S)-α-arylalanine (1.5 mM) in separate assays; the mixtures were incubated at 31° C. An aliquot was withdrawn from each reaction at five time points (0.5, 10, 30, 60, and 360 min). A similar time course experiment was conducted with (R)-α-phenylalanine.\nCofactor Dependency of the Amino Acid Racemase. To assess whether sufficient PLP, made by the E. coli BL21(DE3) expression host, remained bound to the functional PLP-dependent racemase for the duration of the assay, partially purified enzyme (400 μg) was added to each of two 2-mL assays that contained (S)-α-phenylalanine (1.5 mM). To one assay, exogenous PLP (50 μM) was added, and to the other, no cofactor was added. After 6 h, the contents of the reaction vial without PLP added were divided into two fractions […]; to one fraction was added PLP (50 μM), and the other fraction remained unchanged. Additional (S)-α-phenylalanine was added to a final concentration of 1.5 mM in all three assays, and incubated for 14 h.\nEvaluation of the Effect of (R)-β-Phenylalanine on Racemase Activity. The partially purified amino acid racemase (400 μg) in 50 mM phosphate (2 mL, pH 8.0) containing 5% (v/v) glycerol buffer and (S)-α-phenylalanine (0.75 mM) was incubated in separate assays with or without (R)-β-phenylalanine (0.75 mM) added. Aliquots (0.5 mL) of each reaction mixture were withdrawn from each assay at three time points (30, 60 and 360 min). The amino acids in each fraction were derivatized and analyzed by chiral GC/EI-MS as described previously. The mol % of (S)-α-, (R)-α-arylalanine, and (R)-β-arylalanine in each sample were assessed by comparing the abundance of the diagnostic base peak fragment ion (m/z) derived by GC/EI-MS fragmentation for each of the corresponding analytes."}, "[6]": {"target": "T1, phenylalanine aminomutase (PAM)", "design": "His6 (N); made in house; host or cells: E. coli BL21(DE3)", "settings": "enantiopure (S)-α-phenylalanine, 10 μg/mL enzyme, 10 μM substrate, same temperature; cited from earlier work"}}, "note": "Like-named read-outs stand apart in the source and are kept apart here."}
{"compound": "NC(Cc1cccs1)C(=O)O", "note": "(racemic) [2′-thienyl-α-arylalanine, (R,S)-3-(2′-thienyl)alanine]", "values": [{"measurement": "increase in conversion to (R)-β-arylalanine under DKR conditions compared to PAM alone", "setting": "[1]", "value": 12, "unit": "%"}]}
{"compound": "NC(Cc1cccc(F)c1)C(=O)O", "note": "(racemic) [3′-fluoro-α-arylalanine, 2-amino-3-(3′-fluorophenyl)propionic acid]", "values": [{"measurement": "increase in conversion to (R)-β-arylalanine under DKR conditions compared to PAM alone", "setting": "[1]", "value": 14, "unit": "%"}]}
{"compound": "NC(Cc1ccc(F)cc1)C(=O)O", "note": "(racemic) [4′-fluoro-α-arylalanine, 2-amino-3-(4′-fluorophenyl)propionic acid]", "values": [{"measurement": "increase in conversion to (R)-β-arylalanine under DKR conditions compared to PAM alone", "setting": "[1]", "value": 16, "unit": "%"}]}
{"compound": "Cc1ccc(CC(N)C(=O)O)cc1", "note": "(racemic) [4′-methyl-α-arylalanine, (R,S)-2-amino-3-(4′-methylphenyl)propionic acid]", "values": [{"measurement": "increase in conversion to (R)-β-arylalanine under DKR conditions compared to PAM alone", "setting": "[1]", "value": 12, "unit": "%"}]}
{"compound": "N[C@@H](Cc1ccccc1)C(=O)O", "note": "(racemic) [phenylalanine]", "values": [{"measurement": "increase in conversion to (R)-β-arylalanine under DKR conditions compared to PAM alone", "setting": "[1]", "value": 19, "unit": "%"}, {"measurement": "Keq", "setting": "[2]; racemic substrate 0.4 mM, 20 h", "value": 1.8}, {"measurement": "Vrel", "setting": "[3]", "value": 0.18}]}
{"compound": "N[C@H](Cc1ccccc1)C(=O)O", "note": "[(R)-α-Phenylalanine, (R)-α-phenylalanine]", "values": [{"measurement": "inhibition of the PAM reaction (forward)", "setting": "[4]; 0.2 mM and 0.75 mM (R)-α-phenylalanine", "value": "did not significantly inhibit"}, {"measurement": "inhibition of the reverse PAM reaction", "setting": "[4]; (R)-β-phenylalanine as substrate", "value": "not inhibited"}]}
{"compound": "N[C@H](CC(=O)O)c1ccccc1", "note": "[(R)-β-phenylalanine, (R)-3-amino-3-phenylpropionic acid]", "values": [{"measurement": "substrate of the racemase", "setting": "[5]", "value": "nor was (R)-β-amino acid a substrate of the racemase"}, {"measurement": "effect on racemase reaction rate / activity", "setting": "[5]; β-arylalanine added to racemization of (S)-α-arylalanine", "value": "not affect the reaction rate"}]}
{"compound": "N[C@@H](Cc1ccco1)C(=O)O", "note": "[(S)-2-furanyl-α-alanine, (S)-2-amino-3-(2′-furanyl)propionic acid]", "values": [{"measurement": "β-product to α-substrate ratio", "setting": "[2]", "value": 0.41}]}
{"compound": "N[C@@H](Cc1cccs1)C(=O)O", "note": "[(S)-2-thienyl-α-alanine, (S)-3-(2′-thienyl)alanine]", "values": [{"measurement": "β-product to α-substrate ratio", "setting": "[2]", "value": 0.71}]}
{"compound": "Cc1ncc(COP(=O)(O)O)c(C=O)c1O", "note": "[PLP, pyridoxal-5′-phosphate, reference compound]", "values": [{"measurement": "change in racemase reaction rate with or without supplementation", "setting": "[5]; 1.5 mM α-arylalanines, exogenous PLP 50 μM", "value": "No change in the reaction rate"}]}
{"compound": "N[C@@H](Cc1c[nH]cn1)C(=O)O", "note": "[histidine]", "values": [{"measurement": "Vrel", "setting": "[3]", "value": 1}]}
{"compound": "N[C@@H](Cc1c[nH]c2ccccc12)C(=O)O", "note": "[tryptophan]", "values": [{"measurement": "Vrel", "setting": "[3]", "value": 0.004}]}
{"compound": "(S)-α-phenylalanine", "values": [{"measurement": "Keq (previous study)", "setting": "[6]", "value": 1.1}, {"measurement": "Vmax", "setting": "[4]; forward reaction, with (R)-α-phenylalanine, no evident change relative to no inhibitor", "value": 0.1, "unit": "µmol/min/mg"}, {"measurement": "Km", "setting": "[4]; read-out: KM of PAM, in the absence of (R)-α-phenylalanine", "value": 700, "unit": "µM"}, {"measurement": "Km", "setting": "[4]; read-out: apparent Michaelis constant (KM apparent), forward reaction, in the presence of (R)-α-phenylalanine", "value": 1100, "unit": "µM"}]}
